According to PMC4476799, “Englerin A Agonizes the TRPC4/C5 Cation Channels to Inhibit Tumor Cell Line Proliferation” (PLoS ONE, 2015):
Like-named read-outs stand apart in the source and are kept apart here.

Tested on: cancer cell lines from the cancer cell line encyclopedia (CCLE)
Test: Cell line profiling (CLiP) proliferation experiment
Assay type: cell-based
Set-up: key to Compound Activity (1-inactive;2-active): 1-inactive; 2-active; ACTIVITY_AREA: scale not given here; AMAX: unit not given here
Settings: for IC50: read-out: Crossing Point; for EC50: read-out: Inflection Point
Procedure: Compound profiling experiment and data analysis was performed as previously described. Data was imported and plotted using the Tibco Spotfire DXP application. Lines were categorized as sensitive, intermediate and refractory as follows: Amax<-40 & Inflection Point <2 ~ Sensitive, Amax>-20 & Inflection Point >10 ~ Refractory, all else were called Intermediate. Cancer Cell line HG-U133 Plus 2 data was processed and normalized as described. […] Five sets of refractory cell lines were generated from the pool of refractory cell lines trying to match the lineage composition of the set of sensitive cell lines. The limma package was used as previously described to perform the statistical comparison.

[1] = UM-UC-3 cell line, urinary_tract, transitional_cell_carcinoma
[2] = VM-CUB1 cell line, urinary_tract, transitional_cell_carcinoma
[3] = VMRC-RCW cell line, kidney, renal_cell_carcinoma
[4] = VMRC-RCZ cell line, kidney, renal_cell_carcinoma
[5] = WSU-DLCL2 cell line, haematopoietic_and_lymphoid_tissue, diffuse_large_B_cell_lymphoma
[6] = YKG1 cell line, central_nervous_system, astrocytoma_Grade_IV
[7] = Z-138 cell line, haematopoietic_and_lymphoid_tissue, mantle_cell_lymphoma
[8] = ZR-75-1 cell line, breast, ductal_carcinoma
[9] = cell line 8-MG-BA, central_nervous_system, astrocytoma_Grade_IV
[10] = cell line 697, haematopoietic_and_lymphoid_tissue, acute_lymphoblastic_leukaemia
[11] = cell line 769-P, kidney, clear_cell_renal_cell_carcinoma
[12] = cell line 786-O, kidney, clear_cell_renal_cell_carcinoma
[13] = cell line 8305C, thyroid, anaplastic_carcinoma
[14] = cell line 23132/87, stomach, adenocarcinoma
[15] = cell line A4/Fuk, haematopoietic_and_lymphoid_tissue, diffuse_large_B_cell_lymphoma
[16] = cell line A-204, soft_tissue, NS
[17] = cell line BDCM, haematopoietic_and_lymphoid_tissue, acute_lymphoblastic_B_cell_leukaemia
[18] = cell line BHY, upper_aerodigestive_tract, squamous_cell_carcinoma
[19] = cell line BICR 6, upper_aerodigestive_tract, squamous_cell_carcinoma
[20] = cell line BICR 22, upper_aerodigestive_tract, squamous_cell_carcinoma
[21] = cell line CAL-29, urinary_tract, transitional_cell_carcinoma
[22] = cell line DOHH-2, haematopoietic_and_lymphoid_tissue
[23] = cell line EB1, haematopoietic_and_lymphoid_tissue
[24] = cell line EB2, haematopoietic_and_lymphoid_tissue
[25] = cell line EM-2 (haematopoietic_and_lymphoid_tissue, blast_phase_chronic_myeloid_leukaemia)
[26] = cell line EM-2, haematopoietic_and_lymphoid_tissue
[27] = cell line EOL-1, haematopoietic_and_lymphoid_tissue
[28] = cell line FaDu, upper_aerodigestive_tract

CC(C)[C@@]12C[C@@H](O)[C@@](C)(O1)[C@@H]1CC[C@@H](C)[C@H]1[C@@H]2OC(=O)/C=C/c1ccccc1 [Englerin B]
ACTIVITY_AREA [1]: 37.41 | AMAX [1]: -54.71 | RESPONSE [1]: INTERMEDIATE | ACTIVITY_AREA [2]: 96.55 | AMAX [2]: -58.31 | RESPONSE [2]: INTERMEDIATE | IC50 (VMRC-RCW (kidney)): > 30 µM | ACTIVITY_AREA [3]: 10.22 | AMAX [3]: -25.65 | IC50 [3]: > 30 µM | IC50 (VMRC-RCZ (kidney)): > 30 µM | ACTIVITY_AREA [4]: 26.25 | AMAX [4]: -46.92 | RESPONSE [4]: INTERMEDIATE | IC50 [4]: > 30 µM | IC50 (WM983B, WM-983B (skin)): > 30 µM | IC50 (WM983B, WM-983B cell line, skin, NS): > 30 µM | ACTIVITY_AREA (WM1799 cell line, skin, NS): 44.8 | AMAX (WM1799 cell line, skin, NS): -38.05 | RESPONSE (WM1799 cell line, skin, NS): INTERMEDIATE | IC50 (WM-88 (skin)): > 30 µM | ACTIVITY_AREA (WM-88 cell line, skin, NS): 55.16 | AMAX (WM-88 cell line, skin, NS): -34.98 | RESPONSE (WM-88 cell line, skin, NS): INTERMEDIATE | IC50 (WM-88 cell line, skin, NS): > 30 µM | ACTIVITY_AREA (WM-115 cell line, skin, NS): 73.29 | AMAX (WM-115 cell line, skin, NS): -15.29 | RESPONSE (WM-115 cell line, skin, NS): REFRACTORY | ACTIVITY_AREA (WM-266-4 cell line, skin, NS): 31.57 | AMAX (WM-266-4 cell line, skin, NS): -38.36 | RESPONSE (WM-266-4 cell line, skin, NS): INTERMEDIATE | ACTIVITY_AREA (WM-793 cell line, skin, NS): 26.94 | AMAX (WM-793 cell line, skin, NS): -46.79 | RESPONSE (WM-793 cell line, skin, NS): INTERMEDIATE | ACTIVITY_AREA (WM-983B cell line, skin, NS): 63.66 | AMAX (WM-983B cell line, skin, NS): -43.12 | RESPONSE (WM-983B cell line, skin, NS): INTERMEDIATE | IC50 (WM-1799, WM1799 (skin)): > 30 µM | IC50 (WM-1799, WM1799 cell line, skin, NS): > 30 µM | IC50 (WS1 (skin)): > 30 µM | IC50 (WS1, WS1 cell line, skin): > 30 µM | ACTIVITY_AREA (WS1 cell line, skin): 21.77 | AMAX (WS1 cell line, skin): -26.6 | RESPONSE (WS1 cell line, skin): INTERMEDIATE | ACTIVITY_AREA [5]: 47.3 | AMAX [5]: -92.11 | RESPONSE [5]: INTERMEDIATE | ACTIVITY_AREA (YAPC cell line, pancreas, NS): 25.5 | AMAX (YAPC cell line, pancreas, NS): -44.67 | RESPONSE (YAPC cell line, pancreas, NS): INTERMEDIATE | ACTIVITY_AREA [6]: 26.45 | AMAX [6]: -20.02 | RESPONSE [6]: INTERMEDIATE | ACTIVITY_AREA (YMB-1 cell line, breast, NS): 29.44 | AMAX (YMB-1 cell line, breast, NS): -63.02 | RESPONSE (YMB-1 cell line, breast, NS): INTERMEDIATE | IC50 (YMB-1 cell line, breast, NS): 21 µM | EC50 (YMB-1 cell line, breast, NS): 21 µM | ACTIVITY_AREA [7]: 90.79 | AMAX [7]: -65.74 | RESPONSE [7]: INTERMEDIATE | ACTIVITY_AREA [8]: 42.06 | AMAX [8]: -53.16 | Compound Activity (1-inactive;2-active) (call per compound): 1 | Compound Activity (1-inactive;2-active) (call per compound, repeated on every line): 1 | Compound Activity (1-inactive;2-active) (call printed on every cell-line row): 1 | ACTIVITY_AREA [9]: 36.6 | AMAX [9]: -52.73 | RESPONSE [9]: INTERMEDIATE | ACTIVITY_AREA (cell line 59M, ovary, NS): 26.55 | AMAX (cell line 59M, ovary, NS): -38.54 | RESPONSE (cell line 59M, ovary, NS): INTERMEDIATE | IC50 (cell line 59M, ovary, NS): > 30 µM | IC50 (cell line 59M): > 30 µM | IC50 [10]: 18.6 µM | EC50 [10]: 18.6 µM | ACTIVITY_AREA [11]: 13.6 | AMAX [11]: -49.16 | RESPONSE [11]: INTERMEDIATE | ACTIVITY_AREA [12]: 46.1 | AMAX [12]: -38.05 | RESPONSE [12]: INTERMEDIATE | Compound Activity (1-inactive;2-active) (cell line 1321N1 (central_nervous_system, astrocytoma)): 1 | ACTIVITY_AREA [13]: 19.13 | AMAX [13]: -42.05 | RESPONSE [13]: INTERMEDIATE | ACTIVITY_AREA [14]: 152.84 | AMAX [14]: -72.44 | RESPONSE [14]: INTERMEDIATE | IC50 [14]: 15.3 µM | EC50 [14]: 15.3 µM | IC50 [15]: 18.1 µM | EC50 [15]: 18.1 µM | ACTIVITY_AREA [16]: 22.22 | AMAX [16]: -45.81 | RESPONSE [16]: INTERMEDIATE | IC50 (cell line AGS, stomach, adenocarcinoma): 5.71 µM | IC50 [17]: 16.9 µM | EC50 [17]: 16.9 µM | IC50 [18]: 23.5 µM | EC50 [18]: 9.33 µM | IC50 [19]: 23 µM | EC50 [19]: 23 µM | IC50 (cell line BICR 16, upper_aerodigestive_tract, squamous_cell_carcinoma): 9.26 µM | IC50 [20]: 18.8 µM | EC50 [20]: 15 µM | IC50 (cell line C32, skin, NS): > 30 µM | IC50 [21]: 15.9 µM | EC50 [21]: 13.1 µM | Compound Activity (1-inactive;2-active) (cell line COLO-800 (skin, NS)): 1 | Compound Activity (1-inactive;2-active) (cell line COV504 (ovary, NS)): 1 | Compound Activity (1-inactive;2-active) (cell line Caov-3 (ovary, adenocarcinoma)): 1 | Compound Activity (1-inactive;2-active) (cell line DBTRG-05MG (central_nervous_system, astrocytoma_Grade_IV)): 1 | Compound Activity (1-inactive;2-active) (cell line DLD-1 (large_intestine, adenocarcinoma)): 1 | ACTIVITY_AREA (cell line DMS 79, lung): 49.26 | AMAX (cell line DMS 79, lung): -10.4 | RESPONSE (cell line DMS 79, lung): REFRACTORY | ACTIVITY_AREA [22]: 33.67 | AMAX [22]: -98.82 | RESPONSE [22]: INTERMEDIATE | Compound Activity (1-inactive;2-active) (cell line DU 145 (prostate, NS)): 1 | ACTIVITY_AREA (cell line DU 145, prostate): 176.13 | AMAX (cell line DU 145, prostate): -54.93 | RESPONSE (cell line DU 145, prostate): INTERMEDIATE | Compound Activity (1-inactive;2-active) (cell line DV-90 (lung, adenocarcinoma)): 1 | ACTIVITY_AREA (cell line DV-90, lung): 23.59 | AMAX (cell line DV-90, lung): -71.93 | RESPONSE (cell line DV-90, lung): INTERMEDIATE | ACTIVITY_AREA [23]: 13.39 | AMAX [23]: -56.14 | RESPONSE [23]: INTERMEDIATE | IC50 [23]: 28.7 µM | ACTIVITY_AREA [24]: 28.45 | AMAX [24]: -57.08 | RESPONSE [24]: INTERMEDIATE | IC50 [24]: 25.8 µM | ACTIVITY_AREA (cell line EBC-1, lung): 56.14 | AMAX (cell line EBC-1, lung): -53.25 | RESPONSE (cell line EBC-1, lung): INTERMEDIATE | Compound Activity (1-inactive;2-active) (cell line EFM-19 (breast, ductal_carcinoma)): 1 | ACTIVITY_AREA (cell line EFM-19, breast): 28.98 | AMAX (cell line EFM-19, breast): -31.96 | RESPONSE (cell line EFM-19, breast): INTERMEDIATE | ACTIVITY_AREA (cell line EFM-192A, breast): 78.14 | AMAX (cell line EFM-192A, breast): -57.28 | RESPONSE (cell line EFM-192A, breast): INTERMEDIATE | Compound Activity (1-inactive;2-active) [25]: 1 | IC50 [25]: > 30 µM | ACTIVITY_AREA [26]: 14.33 | AMAX [26]: -44.27 | RESPONSE [26]: INTERMEDIATE | IC50 [26]: > 30 µM | ACTIVITY_AREA (cell line EN, endometrium): 5.5 | AMAX (cell line EN, endometrium): -23.22 | RESPONSE (cell line EN, endometrium): INTERMEDIATE | IC50 (cell line EN, endometrium): > 30 µM | IC50 (cell line EN): > 30 µM | ACTIVITY_AREA [27]: 60.59 | AMAX [27]: -94.78 | RESPONSE [27]: INTERMEDIATE | ACTIVITY_AREA (cell line ES-2, ovary): 44.96 | AMAX (cell line ES-2, ovary): -44.71 | RESPONSE (cell line ES-2, ovary): INTERMEDIATE | IC50 (cell line ES-2, ovary): > 30 µM | IC50 (cell line ES-2): > 30 µM | ACTIVITY_AREA (cell line ESS-1, endometrium): 41.09 | AMAX (cell line ESS-1, endometrium): -72.67 | RESPONSE (cell line ESS-1, endometrium): INTERMEDIATE | ACTIVITY_AREA (cell line FU-OV-1, ovary): 158.99 | AMAX (cell line FU-OV-1, ovary): -69.93 | RESPONSE (cell line FU-OV-1, ovary): INTERMEDIATE | IC50 (cell line FU-OV-1, ovary): 3.19 µM | ACTIVITY_AREA [28]: 21.14 | AMAX [28]: -61.31 | RESPONSE [28]: INTERMEDIATE | ACTIVITY_AREA (cell line G-361, skin): 55.99 | AMAX (cell line G-361, skin): -32.98 | RESPONSE (cell line G-361, skin): INTERMEDIATE | ACTIVITY_AREA (cell line G-401, soft_tissue): 47.08 | AMAX (cell line G-401, soft_tissue): -74.97 | RESPONSE (cell line G-401, soft_tissue): INTERMEDIATE | ACTIVITY_AREA (cell line G-402, soft_tissue): 90.01 | AMAX (cell line G-402, soft_tissue): -70.25 | RESPONSE (cell line G-402, soft_tissue): INTERMEDIATE
